Measurements from patent publication US9695155B2, “Herbicidal substituted pyrimidinyloxy benzene compounds” (E. I. DU PONT DE NEMOURS AND COMPANY, priority 2013, dated 2017).

Assays:
[1] = system: pigweed; test: Test A postemergence; format: in vivo, Amaranthus retroflexus; settings: for Plant response rating, Pigweed: 0 to 100 scale, 0 no effect, 100 complete control
Procedure, shortened: (§1)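 Injury scores run from 0, no effect, to 100, complete control, judged by eye against untreated plants roughly 10 days after treatment. Chemicals carried a surfactant in a non-phytotoxic solvent and went onto loam–sand soil preemergence or onto one- to two-leaf seedlings postemergence.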

[2] = system: blackgrass; test: Test A postemergence; format: in vivo, Alopecurus myosuroides; settings: for Plant response rating, Blackgrass: 0 to 100 scale, 0 no effect, 100 complete control
Procedure, shortened: as §1

[3] = system: giant foxtail; test: Test A postemergence; format: in vivo, Setaria faberii; settings: for Plant response rating, Foxtail, Giant: 0 to 100 scale, 0 no effect, 100 complete control
Procedure, shortened: as §1

[4] = system: pigweed; test: Test A preemergence; format: in vivo, Amaranthus retroflexus; settings: for Plant response rating, Pigweed: 0 to 100 scale where 0 is no effect and 100 is complete control
Procedure, shortened: as §1

[5] = system: giant foxtail; test: Test A preemergence; format: in vivo, Setaria faberii; settings: for Plant response rating, Foxtail, Giant: 0 to 100 scale where 0 is no effect and 100 is complete control
Procedure, shortened: as §1

[6] = system: barnyardgrass; test: Test A preemergence; format: in vivo, Echinochloa crus-galli; settings: for Plant response rating, Barnyardgrass: 0 to 100 scale where 0 is no effect and 100 is complete control
Procedure, shortened: as §1

[7] = system: corn; test: Test A postemergence; format: in vivo, Zea mays; settings: for Plant response rating, Corn: 0 to 100 scale, 0 no effect, 100 complete control
Procedure, shortened: as §1

[8] = system: Italian ryegrass; test: Test A preemergence; format: in vivo, Lolium multiflorum; settings: for Plant response rating, Ryegrass, Italian: 0 to 100 scale where 0 is no effect and 100 is complete control
Procedure, shortened: as §1

[9] = system: barnyardgrass; test: Test B flooded paddy test; format: in vivo, Echinochloa crus-galli; settings: Flood, 250 g ai/ha; 0 to 100 scale where 0 is no effect and 100 is complete control
Procedure, shortened: (§2)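 Evaluation is visual, against untreated controls, 13 to 15 days after treatment. Before treatment, plants reached the 2-leaf stage; pots were then flooded 3 cm deep, compound was added to the water, and that level was maintained. Ratings run 0 to 100, with 100 meaning complete control.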

[10] = system: sedge, umbrella; test: Test B flooded paddy test; format: in vivo, Cyperus difformis; settings: Flood, 250 g ai/ha; 0 to 100 scale where 0 is no effect and 100 is complete control
Procedure, shortened: as §2

[11] = system: Italian ryegrass; test: Test A postemergence; format: in vivo, Lolium multiflorum; settings: for Plant response rating, Ryegrass, Italian: 0 to 100 scale, 0 no effect, 100 complete control
Procedure, shortened: as §1

[12] = system: rice; test: Test B flooded paddy test; format: in vivo, Oryza sativa; settings: Flood, 250 g ai/ha; 0 to 100 scale where 0 is no effect and 100 is complete control
Procedure, shortened: as §2

[13] = system: galium; test: Test A postemergence; format: in vivo, Galium aparine; settings: for Plant response rating, Galium: 0 to 100 scale, 0 no effect, 100 complete control
Procedure, shortened: as §1

[14] = system: ragweed; test: Test A preemergence; format: in vivo, Ambrosia elatior; settings: for Plant response rating, Ragweed: 0 to 100 scale where 0 is no effect and 100 is complete control
Procedure, shortened: as §1

[15] = system: kochia; test: Test A postemergence; format: in vivo, Kochia scoparia; settings: for Plant response rating, Kochia: 0 to 100 scale, 0 no effect, 100 complete control
Procedure, shortened: as §1

[16] = system: ragweed; test: Test A postemergence; format: in vivo, Ambrosia elatior; settings: for Plant response rating, Ragweed: 0 to 100 scale, 0 no effect, 100 complete control
Procedure, shortened: as §1

[17] = system: Heteranthera limosa; test: Test B flooded paddy test; format: in vivo; settings: Flood, 250 g ai/ha; 0 to 100 scale where 0 is no effect and 100 is complete control
Procedure, shortened: as §2

[18] = system: kochia; test: Test A preemergence; format: in vivo, Kochia scoparia; settings: for Plant response rating, Kochia: 0 to 100 scale where 0 is no effect and 100 is complete control
Procedure, shortened: as §1

[19] = system: wheat; test: Test A postemergence; format: in vivo, Triticum aestivum; settings: for Plant response rating, Wheat: 0 to 100 scale, 0 no effect, 100 complete control
Procedure, shortened: as §1

[20] = system: barnyardgrass; test: Test A postemergence; format: in vivo, Echinochloa crus-galli; settings: for Plant response rating, Barnyardgrass: 0 to 100 scale, 0 no effect, 100 complete control
Procedure, shortened: as §1

[21] = 31 g ai/ha, visual, approximately 10 days
[22] = 125 g ai/ha, 0 to 100 scale where 0 is no effect and 100 is complete control

In the case of `FCc1cccc(Oc2ncc(Br)cn2)c1-n1cc(Cl)cn1` [Compound 251], the “Plant response rating, Pigweed” value ([1]; 31 g ai/ha) is reported as 60, the “Plant response rating, Pigweed” value ([1]; 125 g ai/ha) is reported as 70 and the “Plant response rating, Blackgrass” value ([2]; 31 g ai/ha) is reported as 50. For the same molecule, the “Plant response rating, Blackgrass” value ([2]; 125 g ai/ha) was 70, the “Plant response rating, Foxtail, Giant” value ([3]; 31 g ai/ha) was 30 and the “Plant response rating, Foxtail, Giant” value ([3]; 125 g ai/ha) was 60. The “Plant response rating, Pigweed” value [4, 21] was 70, the “Pigweed plant response rating (0 to 100 scale)” value ([4]; 125 g ai/ha) was 90 and the “Plant response rating, Foxtail, Giant” value [5, 21] was 50. For the same molecule, the “Foxtail, Giant plant response rating (0 to 100 scale)” value ([5]; 125 g ai/ha) was 80, the “Plant response rating, Barnyardgrass” value [6, 21] was 30 and the “Barnyardgrass plant response rating (0 to 100 scale, 0 is no effect, 100 is complete control)” value ([6]; 125 g ai/ha) was 50. The “Plant response rating, Corn” value ([7]; 31 g ai/ha) was 0, the “Plant response rating, Corn” value ([7]; 125 g ai/ha) was 20 and the “Plant response rating, Ryegrass, Italian” value [8, 21] was 0. For the same molecule, the “Ryegrass, Italian plant response rating (0 to 100 scale)” value ([8]; 125 g ai/ha) was 0, the “Plant response rating, Barnyardgrass” value [9] was 0 and the “Plant response rating, Sedge, Umbrella” value [10] was 40. For the same molecule, the “Plant response rating, Ryegrass, Italian” value ([11]; 31 g ai/ha) was 0, the “Plant response rating, Ryegrass, Italian” value ([11]; 125 g ai/ha) was 10 and the “Plant response rating, Rice” value [12] was 0. For the same molecule, the “Plant response rating, Galium” value ([13]; 31 g ai/ha) was 20, the “Plant response rating, Galium” value ([13]; 125 g ai/ha) was 30 and the “Plant response rating, Ragweed” value [14, 21] was 0. The “Ragweed plant response rating (0 to 100 scale)” value ([14]; 125 g ai/ha) was 30, the “Plant response rating, Kochia” value ([15]; 31 g ai/ha) was 40 and the “Plant response rating, Kochia” value ([15]; 125 g ai/ha) was 60. The “Plant response rating, Ragweed” value ([16]; 31 g ai/ha) was 10, the “Plant response rating, Ragweed” value ([16]; 125 g ai/ha) was 20 and the “Plant response rating, Ducksalad” value [17] was 75. For the same molecule, the “Plant response rating, Kochia” value [18, 21] was 10, the “Kochia plant response rating (0 to 100 scale)” value ([18]; 125 g ai/ha) was 70 and the “Plant response rating, Wheat” value ([19]; 31 g ai/ha) was 0. The “Plant response rating, Wheat” value ([19]; 125 g ai/ha) was 0, the “Plant response rating, Barnyardgrass” value ([20]; 31 g ai/ha) was 10 and the “Plant response rating, Barnyardgrass” value ([20]; 125 g ai/ha) was 30.

`CCCOc1cnn(-c2c(F)cccc2Oc2ncc(Cl)cn2)c1` [Compound 127] was tested, and the “Plant response rating, Pigweed” value ([1]; 31 g ai/ha) was 20, the “Pigweed plant response rating” value [1, 22] was 30 and the “Plant response rating, Blackgrass” value ([2]; 31 g ai/ha) was 0. For the same molecule, the “Blackgrass plant response rating” value [2, 22] was 10, the “Plant response rating, Foxtail, Giant” value ([3]; 31 g ai/ha) was 0 and the “Foxtail, Giant plant response rating” value [3, 22] was 20. The “Pigweed plant response rating (0 to 100 scale)” value ([4]; 31 g ai/ha) was 0, the “Plant response rating, Pigweed” value ([4]; 125 g ai/ha) was 10 and the “Foxtail, Giant plant response rating (0 to 100 scale)” value ([5]; 31 g ai/ha) was 10. For the same molecule, the “Plant response rating, Foxtail, Giant” value ([5]; 125 g ai/ha) was 60, the “Barnyardgrass plant response rating (0 to 100 scale)” value ([6]; 31 g ai/ha) was 0 and the “Plant response rating, Barnyardgrass” value ([6]; 125 g ai/ha) was 40. For the same molecule, the “Plant response rating, Corn” value ([7]; 31 g ai/ha) was 0, the “Corn plant response rating” value [7, 22] was 10 and the “Ryegrass, Italian plant response rating (0 to 100 scale)” value ([8]; 31 g ai/ha) was 0. For the same molecule, the “Plant response rating, Ryegrass, Italian” value ([8]; 125 g ai/ha) was 0, the “Plant response rating, Barnyardgrass” value [9] was 0 and the “Plant response rating, Sedge, Umbrella” value [10] was 0. For the same molecule, the “Plant response rating, Ryegrass, Italian” value ([11]; 31 g ai/ha) was 0, the “Ryegrass, Italian plant response rating” value [11, 22] was 0 and the “Plant response rating, Rice” value [12] was 0. The “Plant response rating, Galium” value ([13]; 31 g ai/ha) was 10, the “Galium plant response rating” value [13, 22] was 20 and the “Ragweed plant response rating (0 to 100 scale)” value ([14]; 31 g ai/ha) was 0. The “Plant response rating, Ragweed” value ([14]; 125 g ai/ha) was 0, the “Plant response rating, Kochia” value ([15]; 31 g ai/ha) was 0 and the “Kochia plant response rating” value [15, 22] was 30. For the same molecule, the “Plant response rating, Ragweed” value ([16]; 31 g ai/ha) was 0, the “Ragweed plant response rating” value [16, 22] was 10 and the “Plant response rating, Ducksalad” value [17] was 60. The “Kochia plant response rating (0 to 100 scale)” value ([18]; 31 g ai/ha) was 0, the “Plant response rating, Kochia” value ([18]; 125 g ai/ha) was 0 and the “Plant response rating, Wheat” value ([19]; 31 g ai/ha) was 0. For the same molecule, the “Wheat plant response rating” value [19, 22] was 0, the “Plant response rating, Barnyardgrass” value ([20]; 31 g ai/ha) was 0 and the “Barnyardgrass plant response rating” value [20, 22] was 10.
